Assays:
Assay type in all cases: biochemical
CYP2C9 [1] = target: T1, CYP2C9 (Homo sapiens, UniProt P11712); assay: probe substrate turnover, UHPLC
CYP2E1 = CYP2E1 (Homo sapiens, UniProt P05181); assay: probe substrate turnover, UHPLC
CYP2C19 [2] = target: T2, CYP2C19 (Homo sapiens, UniProt P33261); assay: inhibition kinetics, nonlinear fit, Dixon plot, UHPLC
UGT2B7 [3] = target: T3, UGT2B7 (Homo sapiens, UniProt P16662); assay: probe substrate turnover, UHPLC
T3 sequence (P16662 24-529): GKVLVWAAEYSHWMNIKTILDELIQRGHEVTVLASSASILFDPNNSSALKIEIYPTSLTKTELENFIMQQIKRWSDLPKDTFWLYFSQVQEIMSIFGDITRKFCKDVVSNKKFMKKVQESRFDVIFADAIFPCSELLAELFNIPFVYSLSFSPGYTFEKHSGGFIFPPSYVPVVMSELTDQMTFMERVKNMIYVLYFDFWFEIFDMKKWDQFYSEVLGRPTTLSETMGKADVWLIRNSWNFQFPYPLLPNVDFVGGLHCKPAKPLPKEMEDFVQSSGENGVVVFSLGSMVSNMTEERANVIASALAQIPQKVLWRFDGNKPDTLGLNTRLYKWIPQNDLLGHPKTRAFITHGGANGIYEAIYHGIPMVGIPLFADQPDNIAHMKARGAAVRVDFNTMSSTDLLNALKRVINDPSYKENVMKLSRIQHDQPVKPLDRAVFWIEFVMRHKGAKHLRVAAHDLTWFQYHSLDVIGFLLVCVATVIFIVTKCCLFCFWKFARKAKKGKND

UGT2B7 [4] = target: T3, UGT2B7; assay: inhibition kinetics, nonlinear fit, Dixon plot, UHPLC
UGT1A1 = target: T4, UGT1A1 (Homo sapiens, UniProt P22309); assay: probe substrate turnover, UHPLC
T4 sequence (P22309 26-533): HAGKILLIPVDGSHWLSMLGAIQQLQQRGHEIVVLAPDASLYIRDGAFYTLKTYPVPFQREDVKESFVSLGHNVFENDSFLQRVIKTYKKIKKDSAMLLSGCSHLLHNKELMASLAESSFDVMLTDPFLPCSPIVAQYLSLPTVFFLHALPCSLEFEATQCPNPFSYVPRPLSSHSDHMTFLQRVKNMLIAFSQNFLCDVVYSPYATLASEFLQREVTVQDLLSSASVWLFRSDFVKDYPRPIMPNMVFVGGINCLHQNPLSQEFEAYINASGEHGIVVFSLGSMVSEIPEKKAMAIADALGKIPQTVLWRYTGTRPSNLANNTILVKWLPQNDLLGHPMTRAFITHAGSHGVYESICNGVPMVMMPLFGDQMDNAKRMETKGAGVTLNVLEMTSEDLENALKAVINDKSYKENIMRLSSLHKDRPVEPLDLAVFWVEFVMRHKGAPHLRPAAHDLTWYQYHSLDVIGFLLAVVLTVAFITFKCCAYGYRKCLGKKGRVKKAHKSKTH

CYP2C19 [5] = target: T2, CYP2C19; assay: probe substrate turnover, UHPLC
CYP2C8 = target: T5, CYP2C8 (Homo sapiens, UniProt P10632); assay: probe substrate turnover, UHPLC
T5 sequence (P10632 1-490): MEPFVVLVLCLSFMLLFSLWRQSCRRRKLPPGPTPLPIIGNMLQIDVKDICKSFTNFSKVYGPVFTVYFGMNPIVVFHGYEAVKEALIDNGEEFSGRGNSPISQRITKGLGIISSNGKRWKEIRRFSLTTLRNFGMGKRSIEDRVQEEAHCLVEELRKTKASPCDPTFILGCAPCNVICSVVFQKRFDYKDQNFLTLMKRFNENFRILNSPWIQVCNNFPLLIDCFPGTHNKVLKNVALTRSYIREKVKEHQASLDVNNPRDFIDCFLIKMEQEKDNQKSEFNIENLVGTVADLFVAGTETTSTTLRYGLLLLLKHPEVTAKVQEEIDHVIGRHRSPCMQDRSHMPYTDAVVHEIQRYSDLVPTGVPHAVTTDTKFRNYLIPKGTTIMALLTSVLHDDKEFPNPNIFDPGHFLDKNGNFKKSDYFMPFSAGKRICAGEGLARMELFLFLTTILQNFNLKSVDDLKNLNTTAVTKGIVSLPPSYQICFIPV

CYP2B6 [6] = target: T6, CYP2B6 (Homo sapiens, UniProt P20813); assay: inhibition kinetics, nonlinear fit, Dixon plot, UHPLC
T6 sequence (P20813 1-491): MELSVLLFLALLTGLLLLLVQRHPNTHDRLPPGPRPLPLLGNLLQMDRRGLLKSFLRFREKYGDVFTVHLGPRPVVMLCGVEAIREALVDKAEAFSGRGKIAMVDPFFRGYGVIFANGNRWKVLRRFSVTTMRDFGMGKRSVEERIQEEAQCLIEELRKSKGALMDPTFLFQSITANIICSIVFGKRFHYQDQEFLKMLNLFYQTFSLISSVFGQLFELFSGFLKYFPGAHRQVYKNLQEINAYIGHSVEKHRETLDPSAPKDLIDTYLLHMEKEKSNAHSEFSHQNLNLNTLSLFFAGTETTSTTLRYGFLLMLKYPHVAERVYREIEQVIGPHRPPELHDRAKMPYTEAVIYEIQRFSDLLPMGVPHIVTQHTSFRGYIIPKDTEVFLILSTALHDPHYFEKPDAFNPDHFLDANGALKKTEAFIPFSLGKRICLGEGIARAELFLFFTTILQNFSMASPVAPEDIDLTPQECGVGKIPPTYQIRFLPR

CYP2B6 [7] = target: T6, CYP2B6; assay: probe substrate turnover, UHPLC
UGT1A9 [8] = target: T7, UGT1A9 (Homo sapiens, UniProt O60656); assay: inhibition kinetics, nonlinear fit, Dixon plot, UHPLC
T7 sequence (O60656 26-530): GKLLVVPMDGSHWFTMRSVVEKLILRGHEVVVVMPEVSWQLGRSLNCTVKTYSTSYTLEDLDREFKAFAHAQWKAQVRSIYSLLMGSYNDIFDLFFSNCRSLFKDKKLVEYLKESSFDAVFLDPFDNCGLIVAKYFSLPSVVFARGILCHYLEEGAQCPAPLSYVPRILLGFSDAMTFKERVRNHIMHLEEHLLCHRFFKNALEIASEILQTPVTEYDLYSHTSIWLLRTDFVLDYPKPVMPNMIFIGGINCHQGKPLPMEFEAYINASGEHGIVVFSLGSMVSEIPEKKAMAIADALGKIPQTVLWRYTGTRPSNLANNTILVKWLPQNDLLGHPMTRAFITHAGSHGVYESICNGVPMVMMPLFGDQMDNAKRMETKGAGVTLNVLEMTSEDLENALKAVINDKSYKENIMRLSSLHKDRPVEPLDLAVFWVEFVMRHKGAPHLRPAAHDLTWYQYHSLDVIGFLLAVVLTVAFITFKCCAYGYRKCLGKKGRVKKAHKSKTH

UGT1A9 [9] = target: T7, UGT1A9; assay: probe substrate turnover, UHPLC
CYP3A4 = CYP3A4 (Homo sapiens, UniProt P08684); assay: probe substrate turnover, UHPLC
CYP2C9 [10] = target: T1, CYP2C9; assay: inhibition kinetics, nonlinear fit, Dixon plot, UHPLC
CYP1A2 = target: T8, CYP1A2 (Homo sapiens, UniProt P05177); assay: probe substrate turnover, UHPLC
T8 sequence (P05177 2-516): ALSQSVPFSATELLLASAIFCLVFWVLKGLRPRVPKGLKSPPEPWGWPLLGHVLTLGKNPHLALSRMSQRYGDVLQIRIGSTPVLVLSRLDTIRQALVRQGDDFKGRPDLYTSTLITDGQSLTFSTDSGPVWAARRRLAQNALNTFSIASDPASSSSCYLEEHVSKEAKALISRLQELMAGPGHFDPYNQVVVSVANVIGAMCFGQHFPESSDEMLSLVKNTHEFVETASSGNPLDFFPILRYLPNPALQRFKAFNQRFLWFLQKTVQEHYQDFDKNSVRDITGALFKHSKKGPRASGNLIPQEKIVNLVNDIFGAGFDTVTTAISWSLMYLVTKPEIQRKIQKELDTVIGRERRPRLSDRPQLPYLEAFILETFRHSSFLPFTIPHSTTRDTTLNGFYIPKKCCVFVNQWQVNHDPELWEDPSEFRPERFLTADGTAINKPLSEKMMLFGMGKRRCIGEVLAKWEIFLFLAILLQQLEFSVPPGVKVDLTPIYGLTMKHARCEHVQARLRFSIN

T1 sequence (P11712 whole entry): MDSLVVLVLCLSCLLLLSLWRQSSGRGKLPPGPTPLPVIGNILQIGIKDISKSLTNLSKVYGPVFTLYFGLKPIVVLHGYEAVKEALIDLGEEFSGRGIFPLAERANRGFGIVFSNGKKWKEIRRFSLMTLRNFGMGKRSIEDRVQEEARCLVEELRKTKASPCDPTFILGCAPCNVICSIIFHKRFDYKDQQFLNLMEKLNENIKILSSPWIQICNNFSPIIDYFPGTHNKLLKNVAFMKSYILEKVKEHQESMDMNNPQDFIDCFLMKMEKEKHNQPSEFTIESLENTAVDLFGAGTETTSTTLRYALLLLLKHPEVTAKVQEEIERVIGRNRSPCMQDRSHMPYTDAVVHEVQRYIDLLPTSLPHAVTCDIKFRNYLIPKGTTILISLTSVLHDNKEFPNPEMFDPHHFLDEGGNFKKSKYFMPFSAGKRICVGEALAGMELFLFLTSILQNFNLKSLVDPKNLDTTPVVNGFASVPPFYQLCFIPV
T2 sequence (P33261 whole entry): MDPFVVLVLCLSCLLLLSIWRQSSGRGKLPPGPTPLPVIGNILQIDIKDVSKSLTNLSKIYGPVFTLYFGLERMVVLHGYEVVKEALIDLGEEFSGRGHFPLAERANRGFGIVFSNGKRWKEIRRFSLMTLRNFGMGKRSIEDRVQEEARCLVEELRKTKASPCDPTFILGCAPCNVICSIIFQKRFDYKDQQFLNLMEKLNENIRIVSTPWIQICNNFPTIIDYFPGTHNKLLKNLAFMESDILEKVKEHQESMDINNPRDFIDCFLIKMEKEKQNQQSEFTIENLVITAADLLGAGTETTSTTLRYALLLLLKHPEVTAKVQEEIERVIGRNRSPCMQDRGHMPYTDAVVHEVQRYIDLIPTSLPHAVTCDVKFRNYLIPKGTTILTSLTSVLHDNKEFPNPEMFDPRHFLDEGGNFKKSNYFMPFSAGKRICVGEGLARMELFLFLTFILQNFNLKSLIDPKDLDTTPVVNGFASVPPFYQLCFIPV
Sequence of CYP3A4 (P08684 2-503): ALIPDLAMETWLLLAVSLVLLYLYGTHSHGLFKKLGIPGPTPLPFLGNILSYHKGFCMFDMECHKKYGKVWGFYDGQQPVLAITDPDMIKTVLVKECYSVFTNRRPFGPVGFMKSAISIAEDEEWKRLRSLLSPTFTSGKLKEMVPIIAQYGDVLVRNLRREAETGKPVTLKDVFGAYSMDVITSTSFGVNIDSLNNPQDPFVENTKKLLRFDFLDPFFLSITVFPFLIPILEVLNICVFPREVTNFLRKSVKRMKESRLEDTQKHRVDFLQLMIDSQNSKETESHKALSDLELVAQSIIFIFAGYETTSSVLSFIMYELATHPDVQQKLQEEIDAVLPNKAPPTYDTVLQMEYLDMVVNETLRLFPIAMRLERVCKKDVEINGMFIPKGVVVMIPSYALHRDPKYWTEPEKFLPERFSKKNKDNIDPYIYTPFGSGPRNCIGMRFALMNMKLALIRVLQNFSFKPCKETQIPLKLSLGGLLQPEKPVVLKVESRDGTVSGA
Sequence of CYP2E1 (P05181 whole entry): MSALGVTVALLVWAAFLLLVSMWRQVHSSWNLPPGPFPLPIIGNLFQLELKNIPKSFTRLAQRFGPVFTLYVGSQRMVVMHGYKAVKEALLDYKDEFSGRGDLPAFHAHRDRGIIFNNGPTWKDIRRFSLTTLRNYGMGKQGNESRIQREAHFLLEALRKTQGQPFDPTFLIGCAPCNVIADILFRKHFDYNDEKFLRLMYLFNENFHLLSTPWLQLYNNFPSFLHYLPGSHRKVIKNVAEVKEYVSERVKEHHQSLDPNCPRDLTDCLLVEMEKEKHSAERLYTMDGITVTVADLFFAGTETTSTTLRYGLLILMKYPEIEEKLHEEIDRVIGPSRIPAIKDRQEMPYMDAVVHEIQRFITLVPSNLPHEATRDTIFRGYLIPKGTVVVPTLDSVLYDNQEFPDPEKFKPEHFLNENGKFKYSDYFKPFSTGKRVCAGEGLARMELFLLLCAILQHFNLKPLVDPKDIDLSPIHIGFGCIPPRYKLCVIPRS

COc1cc2c(cc1CC=C(C)C)C(=O)C[C@@H](c1ccc(O)cc1)O2 [bavachinin]
IC50 (CYP2C9 [1]): 280 ± 70 nM
% residual activity at 100 μM (CYP2E1): 51.5%
Ki (CYP2C19 [2]): 1860 ± 160 nM
IC50 (UGT2B7 [3]): 2530 ± 620 nM
Ki (UGT2B7 [4]): 1130 ± 120 nM
IC50 (UGT1A1): 20700 ± 10600 nM
IC50 (CYP2C19 [5]): 1380 ± 530 nM
% residual activity at 100 μM (CYP2C8): 21.5%
Ki (CYP2B6 [6]): 1510 ± 120 nM
IC50 (CYP2B6 [7]): 1680 ± 630 nM
Ki (UGT1A9 [8]): 370 ± 40 nM
IC50 (UGT1A9 [9]): 2340 ± 610 nM
% residual activity at 100 μM (CYP3A4): 24.7%
Ki (CYP2C9 [10]): 190 ± 30 nM
% residual activity at 100 μM (CYP1A2): 91.5%
